In general, logD refers to lipophilicity at a set pH, counting ionised and neutral species. A high value points to a more lipophilic compound.

The values that follow come from the SangsterLogP compilation.

This data set in a line: method code SF-AS, from PMID: 6637504. The following applies: pH 5.0.
Compound `O=c1c2c(nc3n1CCC3)CCCCCC2` showed a logD of 1.41.
Then `CC1CCc2nc3c(c(=O)n2C1)CCC3` (stereo not drawn), with 1.2; and `CCc1c(C)nc2cc(C)cc(C)n2c1=O`, with 1.8.
Then `CCCc1c(C)nc2ccccn2c1=O`, with 1.85; and `O=c1c2c(nc3n1CCCCCC3)CCCCCC2`, with 2.77; and `O=c1c2c(nc3ccccn13)CCC2`, with 1.19.
For `O=c1c2c(nc3n1CCC3)CCCC2` the value was 0.83; for `O=c1c2c(nc3n1CCCC3)CCC2`, 0.72.
`CC1CCCc2nc3c(c(=O)n21)CCC3` (stereo not drawn) gave a logD of 1.21.
For the compound `O=c1c2ccccc2nc2n1CCC2`, the logD was determined as 1.07. The logD values of the last two compounds are within 0.2 log units of each other.
As for `CC1CCn2c(nc3c(c2=O)CCC3)C1` (stereo not drawn), the logD was 1.22.
Then `Cc1cccn2c(=O)c3c(nc12)CCC3`, with 1.72; and `O=c1c2c(nc3n1CCC3)CCCCC2`, with 1.25.
